These results are taken from patent US20150031102A1, “METHODS AND COMPOSITIONS FOR ENHANCED PRODUCTION OF BUTANOL BY CLOSTRIDIA” (Butrolix LLC, priority 2012, published 2015).

For the test, the system named is C. acetobutylicum ATCC 824. As to the kind of experiment: Germination and sequential batch cultures of C. acetobutylicum ATCC 824 grown at 37° C. (growth OD600, final pH, ceric ion reactive compounds). The test is classed as cell-based, Clostridium acetobutylicum. The protocol: Clostridium acetobutylicum ATCC 824 and C. beijerinckii NCIMB 8052 are available from several commercial microbial culture collections including the American Type Culture Collection (ATCC), Manassas, Va., USA. The strain grown at 30 C or 37 C in YE broth, which contained, per liter: 5.0 g yeast extract, 2.5 g casamino acids, 1.0 g L-asparagine, 0.5 g cysteine·HCl, 56 mg K2HPO4, 56 mg KH2PO4, 82 mg anhydrous MgSO4, 8 mg FeSO4.H2O, 6 mg MnSO4.H2O and 10 g glucose. Alternatively, strains were grown in YEPG broth, which was identical to YE expect that K2HPO4 and KH2PO4 were increased to 145 mg/L each and glucose was increased to 60 g/L. The pH of the media was adjusted to 7.2 using 45% KOH prior to sterilization by autoclaving. Media were solidified by addition of 1.5% Bacteriological Agar, Acumedia Manufacturers, Inc., Lansing, Mich. All cultures were grown in anaerobic conditions using the AnaeroPack System, Mitsubishi Gas Chemical Co., Inc., Japan, and GasPak EZ Gas Generating Sachets, Becton, Dickinson and Co., Sparks, Md. Spore stocks were kept at room temperature on agar-solidified media and were activated by suspending spores in 0.5 mL to 1.0 mL of medium followed by heating for 10 min at 80 C before inoculation into growth medium.
Growth of bacterial cultures was measured spectrophotometrically using optical density at 600 nm and pH of cell-free culture supernatants was measured using a hand-held Shindengen ISFET pH Meter KS501, Shendengen Electric Manufacturing Co., Ltd., Bannockburn, Ill.
Total alcohols in cell-free culture supernatants were measured using a modification of a colorimetric method based on ceric ammonium nitrate (Reid and Truelove, 1952). The ceric ion reagent was prepared by adding 1.3 mL of concentrated nitric acid to 40 mL of distilled water, then 10.96 g of ceric ammonium nitrate was dissolved in the dilute nitric acid solution and the solution was brought to a final volume of 50 mL. For the assay, […] of butanol standard or culture supernatant was mixed with […] distilled water in a disposable plastic cuvette followed by addition of […] of the ceric ion reagent. The sample was mixed by inverting the cuvette six times then exactly two minutes later the optical density at 500 nm wavelength was measured. The concentration of total alcohols was determined by comparison with a standard curve prepared by using butanol diluted in distilled water.
Spores of C. acetobutylicum ATCC 824 were germinated and grown overnight at 37 C under anaerobic conditions in YEPG medium that either contained 50 nM of peptide SEQ ID NO: 143 or no added peptide. After about 24 h of growth, […] of the untreated culture was transferred (transfer 1) to each of two flasks that contained 10 mL of YEPG with either no treatment or with 50 nM peptide SEQ ID NO: 143. At the same time, 10 μL of the culture that was germinated in the presence of peptide SEQ ID NO: 143 was also transferred to 10 mL of YEPG that contained 50 nM of peptide SEQ ID NO: 143. Thereafter, […] of each culture was transferred, at the same time, every 24-48 h to 10 mL of fresh YEPG that contained the same peptide treatment or no treatment. Each culture was stopped after 72 hours if incubation and optical density, pH and ceric ion reactive chemicals were measured. Sequential batch culturing was continued through 3 transfers at which point the untreated culture and the culture that was germinated and transferred in 50 nM of peptide were still growing, while the culture that was treated with peptide after germination had stopped growing (Table 15 and FIG. 7).

The mark [1] stands for this setting: 50 nM added after germination, transfer 1, 72 h culture.
Where [2] appears, read: 50 nM added after germination, transfer 2, 72 h culture.
The mark [3] stands for this setting: 50 nM added after germination, transfer 3, 72 h culture.
Setting [4] is: 50-50 (germinated and transferred in 50 nM), transfer 1, 72 h culture.
[5] abbreviates: 50-50 (germinated and transferred in 50 nM), transfer 2, 72 h culture.
The mark [6] stands for this setting: 50-50 (germinated and transferred in 50 nM), transfer 3, 72 h culture.
[7] abbreviates: 50-50 (spores germinated in 50 nM peptide), transfer 0 (germinated culture), 72 h culture.

As for SYPGWSW [peptide SEQ ID NO: 143], the “Final pH” value under setting [1] came to 4.4; the “Final pH” value under setting [2] was determined as 6.0; the “Final pH” value under setting [3] was found to be 5.5; the “Final pH” value under setting [4] is 4.5; the “Final pH” value under setting [5] worked out at 3.8; the “Final pH” value under setting [6] is recorded as 4.6. Besides, the “Final pH” value under setting [7] was 4.1. Moreover, the “Optical density at 600 nm” value came out at 1.891 under setting [1]; 0.011 under setting [2]; 0.100 under setting [3]; 1.715 under setting [4]; 1.858 under setting [5]; 1.485 under setting [6]. The “Optical density at 600 nm” value under setting [7] is on record as 2.121. Moreover, the “Optical density of ceric ion reactive compounds measured at 500 nm” value is given as 0.116 under setting [1]; 0.000 under setting [2]; 0.001 under setting [3]; 0.152 under setting [4]; −0.063 under setting [5]; 0.138 under setting [6]. Under setting [7], the “Optical density of ceric ion reactive compounds measured at 500 nm” value was determined as 0.028. Moreover, the “Growth in sequential transfers” value (50 nM added after germination, untreated survived through 3 transfers) is recorded as “did not grow beyond the first transfer”. The “Culture degeneration in terms of production of total alcohols” value (50 nM peptide treatment during germination and growth) is “prevented culture degeneration”.
